Experimental data from publication PMC2375285, “Inhibition of all-TRANS-retinoic acid metabolism by R116010 induces antitumour activity” (British Journal of Cancer, 2002).

What was measured:
[1] = system: Lewis lung (3LL) tumours; design: method as in Smets et al, manuscript in preparation; conditions: in vivo; ref Smets et al, manuscript in preparation; cited from earlier work
[2] = target: T1, aromatase (CYP19) (Homo sapiens, UniProt P11511); assay: Aromatase, conversion of androstenedione to estrone in human placental microsomes; format: biochemical
T1 construct: aromatase (CYP19) in human placental microsomes; from tissue; host or cells: human placenta, microsomes
T1 sequence (P11511 1-503): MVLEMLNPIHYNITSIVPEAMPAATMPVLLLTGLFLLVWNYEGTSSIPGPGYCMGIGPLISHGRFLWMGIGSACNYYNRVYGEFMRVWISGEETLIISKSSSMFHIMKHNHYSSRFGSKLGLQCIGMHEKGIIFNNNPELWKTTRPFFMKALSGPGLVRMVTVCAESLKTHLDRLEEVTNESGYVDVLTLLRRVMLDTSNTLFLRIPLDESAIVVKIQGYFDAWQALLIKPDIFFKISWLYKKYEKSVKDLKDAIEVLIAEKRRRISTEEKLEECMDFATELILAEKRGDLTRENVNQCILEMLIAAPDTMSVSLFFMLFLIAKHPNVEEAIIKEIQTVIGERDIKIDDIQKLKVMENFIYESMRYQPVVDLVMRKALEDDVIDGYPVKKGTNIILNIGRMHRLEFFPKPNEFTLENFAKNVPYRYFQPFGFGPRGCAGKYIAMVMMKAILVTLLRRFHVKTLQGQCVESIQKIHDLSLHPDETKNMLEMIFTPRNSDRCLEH
Experimental: (§1) The conversion of androstenedione to estrone by aromatase (CYP19) in human placental microsomes, the conversion of 17-hydroxy-20-dihydroprogesterone to testosterone by 17,20-lyase (CYP17) in rat testicular S10 fractions, and the 2α-, 7α-, 6β-, and 16β-hydroxylation of testosterone (CYP2C11, CYP2A1, CYP3A, CYP2B1/2) in rat liver microsomes were carried out as described ([Vanden Bossche et al, 1990]).

[3] = target: T2, 17,20-lyase (CYP17) (Rattus norvegicus, UniProt P11715); assay: 17,20-lyase in rat testicular S10 fraction; format: biochemical
T2 construct: 17,20-lyase (CYP17) in rat testicular S10 fractions; from tissue; host or cells: rat testis, S10 fraction
T2 sequence (P11715 1-507): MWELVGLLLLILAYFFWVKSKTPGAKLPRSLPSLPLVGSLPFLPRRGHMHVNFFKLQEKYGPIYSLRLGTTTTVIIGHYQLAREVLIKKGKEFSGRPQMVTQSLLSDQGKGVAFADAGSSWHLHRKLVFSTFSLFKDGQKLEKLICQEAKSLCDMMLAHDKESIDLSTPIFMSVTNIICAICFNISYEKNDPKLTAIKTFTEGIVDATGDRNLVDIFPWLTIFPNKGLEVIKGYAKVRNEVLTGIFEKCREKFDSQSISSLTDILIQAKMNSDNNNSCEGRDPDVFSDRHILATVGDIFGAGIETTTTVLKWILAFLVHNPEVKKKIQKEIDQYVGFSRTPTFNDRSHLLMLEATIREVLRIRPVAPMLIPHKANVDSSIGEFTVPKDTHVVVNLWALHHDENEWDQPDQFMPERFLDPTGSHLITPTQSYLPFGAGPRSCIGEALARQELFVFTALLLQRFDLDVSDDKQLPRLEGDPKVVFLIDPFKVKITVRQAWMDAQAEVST
Experimental: Metabolism of RA by CYP26A1 was measured in microsomes of T47D human breast cancer cells that were pretreated for 16 h with 1 μM RA to induce RA metabolism. Microsomes were prepared exactly as described by [Han and Choi (1996)], and RA metabolism was measured as described by [Van Wauwe et al (1994)]. The conversion of androstenedione to estrone by aromatase (CYP19) in human placental microsomes, the conversion of 17-hydroxy-20-dihydroprogesterone to testosterone by 17,20-lyase (CYP17) in rat testicular S10 fractions, and the 2α-, 7α-, 6β-, and 16β-hydroxylation of testosterone (CYP2C11, CYP2A1, CYP3A, CYP2B1/2) in rat liver microsomes were carried out as described ([Vanden Bossche et al, 1990]).

[4] = system: RA metabolism in intact T47D cells; assay: Microcolumn assay for RA metabolism in intact T47D cells; format: cell-based, human
Experimental: RA metabolism was quantitatively determined using the microcolumn assay as described previously ([Krekels et al, 1997]). […] Cells were then washed twice with culture medium, harvested and resuspended at 4×10^6 cells ml^−1. An aliquot of this cell suspension (450 μl) was incubated for 90 min in the presence of 0.1 μM [11, 12-^3H(N)]RA, after which 2 ml acetonitrile was added. After centrifugation for 10 min at 780 g, the resulting deproteinized supernatant was acidified with 2.5 ml of 40 mM acetic acid and applied to a 3 ml C18 Bond Elut LRC column (Varian, Harbor City, CA, USA; pretreated with 4 ml distilled water) under a vacuum of 127 mmHg using VAC ELUT SPS-24 and the effluent was collected. The column was eluted with 1 ml 40% acetonitrile and the effluent was collected in the same vial. Radioactivity in the collected effluent, containing the polar metabolites, was determined in a Packard Tri-carb 4530 liquid scintillation analyzer. Optiphase ‘Hi Safe II’ (Wallac, Milton Keynes, UK) was used as a scintillator. Data are presented as mean±s.d. of three or four independent experiments. The IC50-values were calculated by non-linear regression analysis using SigmaPlot 4.01 software.

[5] = system: CYP3A; assay: Testosterone 6β-hydroxylase in rat liver microsomes; conditions: probe testosterone
Experimental: as §1

[6] = target: T3, CYP2C11 (Rattus norvegicus, UniProt P08683); assay: Testosterone 2α-hydroxylase in rat liver microsomes; format: biochemical
T3 construct: hydroxylation of testosterone (CYP2C11, CYP2A1, CYP3A, CYP2B1/2) in rat liver microsomes; from tissue; host or cells: rat liver, microsomes
T3 sequence (P08683 1-500): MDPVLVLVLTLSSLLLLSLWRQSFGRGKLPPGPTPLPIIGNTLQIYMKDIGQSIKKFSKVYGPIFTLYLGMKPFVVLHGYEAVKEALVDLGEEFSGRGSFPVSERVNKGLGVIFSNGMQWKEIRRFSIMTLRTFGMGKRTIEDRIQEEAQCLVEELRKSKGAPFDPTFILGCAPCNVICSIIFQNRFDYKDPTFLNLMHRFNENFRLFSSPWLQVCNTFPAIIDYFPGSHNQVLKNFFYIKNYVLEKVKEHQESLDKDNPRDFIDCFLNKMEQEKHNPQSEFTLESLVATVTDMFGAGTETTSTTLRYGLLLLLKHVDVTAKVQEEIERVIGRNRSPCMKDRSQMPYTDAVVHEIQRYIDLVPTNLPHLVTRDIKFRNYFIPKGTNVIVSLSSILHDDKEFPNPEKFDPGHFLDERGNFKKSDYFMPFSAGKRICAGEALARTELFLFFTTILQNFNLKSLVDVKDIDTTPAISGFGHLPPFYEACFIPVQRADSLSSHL
Experimental: as §1

For `C[C@@H]([C@H](c1ccc(Nc2nc3ccccc3s2)cc1)n1ccnc1)N(C)C` [R116010, [S-(R*,R*)]-N-[4-[2-(dimethylamino)-1-(1H-imidazole-1-yl)propyl]-phenyl]-2-benzothiazolamine], the “growth of subcutaneous mouse Lewis lung (3LL) tumours” value [1] is listed as “inhibit the growth”, the inhibition at 10 μM ([2]; 10 μM R116010, human placental microsomes, read-out: percentage of inhibition, Aromatase (CYP19)) is listed as 12% and the IC50 ([2]; Human placental microsomes) is listed as greater than 10000 nM. For the same compound, the IC50 [3] was 250 nM, the IC50 ([4]; Homo sapiens, intact T47D cells pretreated 16 h with 1 μM RA, 0.1 μM [3H]RA, 90 min, read-out: IC50 inhibition of formation of polar [3H]RA metabolites (RA metabolism)) was 8.7 nM and the “fold more potent than liarozole-fumarate as inhibitor of RA metabolism” value ([4]; intact T47D cells) was “over 100 fold”. It also gave an IC50 [5] greater than 10000 nM, an inhibition at 10 μM [5] of 41% and an IC50 ([6]; Rat liver microsomes) greater than 10000 nM. For the same compound, the inhibition at 10 μM ([6]; probe testosterone (2α-hydroxylation), 10 μM R116010, rat liver microsomes, read-out: percentage of inhibition, Testosterone 2α-hydroxylase (CYP2C11)) was 28%.
